tested on: 3T3-L1 cells; experiment: Glucose-uptake test (2-DOG uptake) in 3T3-L1 cells; assay type: cell-based; conditions: 24 hours, cpm divided by amount of proteins
Description: Glucose-uptake tests as a means for screening compounds for the effect of reducing the blood sugar level were carried out according to the following procedures. 1) Cell: The following cells were used. 3T3-L1 (purchased from Dainippon Pharmaceutical Co. Ltd.) 2) Reagents: The following reagents were used. DMEM (GIBCO); FBS (GIBCO); […] DMSO: dimethylsulfoxide (Wako Pure Chemical Co., Ltd.); ACS2 (Amersham); urea (Wako Pure Chemical Co., Ltd.); protein-determining kit (Bio Rad Code No.). 3) Instrument: The following instrument was used in the test. 24-well plate (Falcon) 3T3-L1 cells were dispersed in a 10% FBS-containing DME medium in a cell concentration of 10000 cells/ml, the resulting cell suspension was dispensed into a 24-well plate in an amount of 1 ml per well and the cells were cultivated in a 5% CO2 -incubator at 37° C. for 5 days. After soaking up the medium in the wells, the plate was washed once with PBS in an amount of 2 ml/well. […] The cells were cultivated in a sample compound-containing medium at 37° C. for 24 hours in a 5%-CO2 -incubator. After the cultivation, the medium was soaked up and the plate was washed three times with 2 ml/well each of PBS. […] After washing with 2 ml/well of PBS, the PBS was sufficiently soaked up. […] The lysate was also inspected for the amount of proteins using 0.2 ml out of the rest of the lysate, according to the microassay method using a protein-determining kit.

How did the “2-DOG Uptake (%) at a concentration of 50 μg/ml” value turn out when Cl.O=C1NC(=O)C(Cc2cccc3c2ccn3Cc2ccccn2)S1 (stereo not drawn) [Example 337, 5-[1-(2-picolyl)indol-4-yl]methyl-2,4-thiazolidinedione hydrochloride] was run?
The value was 181%.

For O=C1NC(=O)C(Cc2cccc3c2ccn3Cc2ccccn2)S1 (stereo not drawn) [Example 133, 5-[1-(2-picolyl)indol-4-yl]methyl-2,4-thiazolidinedione], which “2-DOG Uptake (%) at a concentration of 50 μg/ml” value is on record?
Its value is 240%.

same assay, conditions: Mus musculus, 3T3-L1, 24 h, 50 μg/ml, cpm divided by amount of proteins, read-out: 2-DOG Uptake (%) at a concentration of 50 μg/ml

Which activity at 50 µg/mL does the source give for Cc1c(C)c2c(c(C)c1O)CCC(C)(COc1ccc(CC3SC(=O)NC3=O)cc1)O2 (racemic) [CS-045, (±)5-[4(6-hydroxy-2,5,7,8-tetramethylchroman-2-yl-methoxy)benzyl2,4-thazolidinedione, reference compound] here?
Its activity at 50 µg/mL is 172%.

With O=C1NC(=O)C(Cc2cccc3c2ccn3Cc2cc(C(F)(F)F)cc(C(F)(F)F)c2)S1 (stereo not drawn) [Example 214, 5-{1-[3,5-bis(trifluoromethyl)benzyl]indol-4-yl}methyl-2,4-thiazolidinedione] as the compound, how does the activity at 50 µg/mL read?
Its activity at 50 µg/mL is 185%.

Which activity at 50 µg/mL does the source give for CC(c1ccccc1)n1ccc2c(CC3SC(=O)NC3=O)cccc21 (stereo not drawn) [Example 174, 5-[1-(α-methylbenzyl)indol-4-yl]methyl-2,4-thiazolidinedione] here?
The activity at 50 µg/mL was 252%.

O=C1NC(=O)C(Cc2cccc3c2ccn3Cc2ccncc2)S1 (stereo not drawn) [Example 6, 5-[1-(4-picolyl)indol-4-yl]methyl-2,4-thiazolidinedione] was tested. Which activity at 50 µg/mL did it give?
The activity at 50 µg/mL was 166%.

How did the activity at 50 µg/mL turn out when O=C1NC(=O)C(Cc2cccc3c2ccn3Cc2ccccc2C(F)(F)F)S1 (stereo not drawn) [Example 74, 5-[1-(2-trifluoromethylbenzyl)indol-4-yl]methyl-2,4-thiazolidinedione] was run?
Its activity at 50 µg/mL is 210%.

C=C(C)[C@@H]1CC=C(Cn2ccc3c(CC4SC(=O)NC4=O)cccc32)CC1 (stereo partly drawn) [Example 208, 5-[1-(4S-p-mentha-1,8-dien-7-yl)indol-4-yl]methyl-2,4-thiazolidinedione] was tested. Which activity at 50 µg/mL did it give?
Its activity at 50 µg/mL is 189%.

How did the activity at 50 µg/mL turn out when O=C1NC(=O)C(Cc2cccc3[nH]ccc23)S1 (stereo not drawn) [Example 150, 5-(indol-4-yl)methyl-2,4-thiazolidinedione] was run?
Its activity at 50 µg/mL is 191%.

How did the activity at 50 µg/mL turn out when O=C1NC(=O)C(Cc2cn(Cc3cc(F)cc(F)c3)c3ccccc23)S1 (stereo not drawn) [Example 275, 5-[1-(3,5-difluorobenzyl)indol-3-yl]methyl-2,4-thiazolidinedione] was run?
Its activity at 50 µg/mL is 185%.

O=C1NC(=O)C(Cc2cccc3c2ccn3CCc2ccccc2)S1 (stereo not drawn) [Example 121, 5-(1-phenethylindol-4-yl)methyl-2,4-thiazolidinedione] was tested. Which activity at 50 µg/mL did it give?
Its activity at 50 µg/mL is 218%.

Which activity at 50 µg/mL does the source give for O=C1NC(=O)C(Cc2cccc3c2ccn3Cc2ccc(F)c(F)c2)S1 (stereo not drawn) [Example 68, 5-[1-(3,4-difluorobenzyl)indol-4-yl]-methyl-2,4-thiazolidinedione] here?
The activity at 50 µg/mL was 202%.

With N#Cc1ccc(Cn2cc(CC3SC(=O)NC3=O)c3ccccc32)cc1 (stereo not drawn) [Example 285, 5-[1-(4-cyanobenzyl)indol-3-yl]methyl-2,4-thiazolidinedione] as the compound, how does the activity at 50 µg/mL read?
Its activity at 50 µg/mL is 225%.

Which activity at 50 µg/mL does the source give for COc1ccc(Cn2ccc3c(CC4SC(=O)NC4=O)cccc32)cc1OC (stereo not drawn) [Example 92, 5-[1-(3,4-dimethoxybenzyl)indol-4-yl]methyl-2,4-thiazolidinedione] here?
The activity at 50 µg/mL was 190%.

With COc1ccc(OC)c(Cn2ccc3c(CC4SC(=O)NC4=O)cccc32)c1 (stereo not drawn) [Example 98, 5-[1-(2,5-dimethoxybenzyl)indol-4-yl]methyl-2,4-thiazolidinedione] as the compound, how does the activity at 50 µg/mL read?
Its activity at 50 µg/mL is 180%.

O=C1NC(=O)C(Cc2cccc3c2ccn3Cc2ccc3c(c2)OCO3)S1 (stereo not drawn) [Example 112, 5-(1-piperonylindole-4-yl)methyl-2,4-thiazolidinedione] was tested. Which activity at 50 µg/mL did it give?
Its activity at 50 µg/mL is 155%.

Which activity at 50 µg/mL does the source give for O=C1NC(=O)C(Cc2cccc3c2ccn3S(=O)(=O)c2ccc(F)cc2)S1 (stereo not drawn) [Example 21, 5-[1-(4-fluorobenzenesulfonyl)indol-4-yl]-methyl-2,4-thiazolidinedione] here?
Its activity at 50 µg/mL is 162%.

With O=C1NC(=O)C(Cc2cccc3c2ccn3CC(=O)c2ccccc2)S1 (stereo not drawn) [Example 187, 5-(1-phenacylindol-4-yl)methyl-2,4-thiazolidinedione] as the compound, how does the activity at 50 µg/mL read?
The activity at 50 µg/mL was 174%.

O=C1NC(=O)C(Cc2cccc3c2ccn3Cc2cccc(C(F)(F)F)c2)S1 (stereo not drawn) [Example 77, 5-[1-(3-trifluoromethylbenzyl)indol-4-yl]methyl-2,4-thiazolidinedione] was tested. Which activity at 50 µg/mL did it give?
The activity at 50 µg/mL was 185%.

For Nc1ccc(Cn2ccc3c(CC4SC(=O)NC4=O)cccc32)cc1 (stereo not drawn) [Example 190, 5-[1-(4-aminobenzyl)indol-4-yl]methyl-2,4-thiazolidinedione], which activity at 50 µg/mL is on record?
The activity at 50 µg/mL was 164%.

How did the activity at 50 µg/mL turn out when O=C1NC(=O)C(Cc2cn(Cc3ccc(Cl)cc3)c3ccccc23)S1 (stereo not drawn) [Example 253, 5-[1-(4-chlorobenzyl)indol-3-yl]methyl-2,4-thiazolidinedione] was run?
Its activity at 50 µg/mL is 203%.

With Cc1ccc(S(=O)(=O)n2ccc3c(CC4SC(=O)NC4=O)cccc32)cc1 (stereo not drawn) [Example 24, 5-[1-(p-toluenesulfonyl)indol-4-yl]-methyl-2,4-thiazolidinedione] as the compound, how does the activity at 50 µg/mL read?
The activity at 50 µg/mL was 186%.

For O=C1NC(=O)C(Cc2cccc3c2ccn3Cc2cccc(F)c2)S1 (stereo not drawn) [Example 50, 5-[1-(3-fluorobenzyl)indol-4-yl]-methyl-2,4-thiazolidinedione], which activity at 50 µg/mL is on record?
Its activity at 50 µg/mL is 201%.

How did the activity at 50 µg/mL turn out when O=C1NC(=O)C(Cc2cccc3c2ccn3CCc2cccs2)S1 (stereo not drawn) [Example 139, 5-{1-[2-(thien-2-yl)ethyl]indol-4-yl}methyl-2,4-thiazolidinedione] was run?
The activity at 50 µg/mL was 153%.

O=C1NC(=O)C(=Cc2cccc3c2ccn3Cc2ccccc2)S1 [Example 2, 5-(1-benzylindol-4-yl)methylene-2,4-thiazolidinedione] was tested. Which activity at 50 µg/mL did it give?
The activity at 50 µg/mL was 182%.

With N#Cc1cccc(Cn2cc(CC3SC(=O)NC3=O)c3ccccc32)c1 (stereo not drawn) [Example 283, 5-[1-(3-cyanobenzyl)indol-3-yl]methyl-2,4-thiazolidinedione] as the compound, how does the activity at 50 µg/mL read?
Its activity at 50 µg/mL is 232%.

With O=C1NC(=O)C(=Cc2cccc3c2ccn3Cc2ccc3ccccc3n2)S1 [Example 147, 5-{1-[(quinol-2-yl)methyl]indol-4-yl}methylene-2,4-thiazolidinedione] as the compound, how does the activity at 50 µg/mL read?
Its activity at 50 µg/mL is 156%.

For O=C1NC(=O)C(Cc2ccc3c(ccn3CCc3ccccc3)c2)S1 (stereo not drawn) [Example 305, 5-(1-phenethylindol-5-yl)methyl-2,4-thiazolidinedione], which activity at 50 µg/mL is on record?
The activity at 50 µg/mL was 215%.

For CC1(C)[C@H]2CC=C(Cn3ccc4c(CC5SC(=O)NC5=O)cccc43)[C@@H]1C2 (stereo partly drawn) [Example 199, 5-[1-(1S, 5S, 2-pinen-10-yl)indol-4-yl]methyl-2,4-thiazolidinedione], which activity at 50 µg/mL is on record?
The activity at 50 µg/mL was 206%.

With Cc1cccc(Cn2ccc3c(CC4SC(=O)NC4=O)cccc32)c1 (stereo not drawn) [Example 115, 5-[1-(3-methylbenzyl)indol-4-yl]methyl-2,4-thiazolidinedione] as the compound, how does the activity at 50 µg/mL read?
Its activity at 50 µg/mL is 162%.

For COC(=O)c1ccc(Cn2ccc3c(C=C4SC(=O)NC4=O)cccc32)cc1 [Example 8, 5-[1-(4-methoxycarbonylbenzyl)indol-4-yl]methylene-2,4-thiazolidinedione], which activity at 50 µg/mL is on record?
The activity at 50 µg/mL was 172%.

With O=C1NC(=O)C(Cc2cn(Cc3ccc(O)cc3)c3ccccc23)S1 (stereo not drawn) [Example 317, 5-[1-(4-hydroxybenzyl)indol-3-yl]methyl-2,4-thiazolidinedione] as the compound, how does the activity at 50 µg/mL read?
Its activity at 50 µg/mL is 169%.

With Cc1oc(-c2ccccc2)nc1Cn1ccc2c(C=C3SC(=O)NC3=O)cccc21 [Example 31, 5-{1-[(5-methyl-2-phenyloxazol-4-yl)methyl]indol-4-yl}methylene-2,4-thiazolidine-dione] as the compound, how does the activity at 50 µg/mL read?
The activity at 50 µg/mL was 208%.

For CCC(CC)Cn1ccc2c(C=C3SC(=O)NC3=O)cccc21 [Example 158, 5-[1-(2-ethylbutyl)indol-4-yl]methylene-2,4-thiazolidinedione], which activity at 50 µg/mL is on record?
Its activity at 50 µg/mL is 221%.

O=C1NC(=O)C(Cc2cccc3c2ccn3C2CCCCC2)S1 (stereo not drawn) [Example 180, 5-(1-cyclohexylindol-4-yl)methyl-2,4-thiazolidinedione] was tested. Which activity at 50 µg/mL did it give?
Its activity at 50 µg/mL is 232%.

How did the activity at 50 µg/mL turn out when N#Cc1ccc(Cn2ccc3c(CC4SC(=O)NC4=O)cccc32)cc1 (stereo not drawn) [Example 104, 5-[1-(4-cyanobenzyl)indol-4-yl]methyl-2,4-thiazolidinedione] was run?
The activity at 50 µg/mL was 290%.

How did the activity at 50 µg/mL turn out when COc1cccc(Cn2ccc3c(CC4SC(=O)NC4=O)cccc32)c1 (stereo not drawn) [Example 89, 5-[1-(3-methoxybenzyl)indol-4-yl]methyl-2,4-thiazolidinedione] was run?
Its activity at 50 µg/mL is 185%.

For O=C1NC(=O)C(Cc2cn(Cc3cc(F)ccc3F)c3ccccc23)S1 (stereo not drawn) [Example 250, 5-[1-(2,5-difluorobenzyl)indol-3-yl]methyl-2,4-thiazolidinedione], which activity at 50 µg/mL is on record?
Its activity at 50 µg/mL is 209%.

Which activity at 50 µg/mL does the source give for Cc1oc(-c2ccccc2)nc1Cn1ccc2c(CC3SC(=O)NC3=O)cccc21 (stereo not drawn) [Example 32, 5-{1-[(5-methyl-2-phenyloxazol-4-yl)methyl]indol-4-yl}methyl-2,4-thiazolidinedione] here?
Its activity at 50 µg/mL is 215%.

O=C1NC(=O)C(Cc2cccc3c2ccn3CC2CCc3ccccc3N2)S1 (stereo not drawn) [Example 148, 5-{1-[(1,2,3,4-tetrahydroquinol-2-yl)methyl]indol-4-yl}methyl-2,4-thiazolidinedione] was tested. Which activity at 50 µg/mL did it give?
Its activity at 50 µg/mL is 153%.

How did the activity at 50 µg/mL turn out when O=C1NC(=O)C(Cc2cc3ccccc3n2Cc2ccccc2)S1 (stereo not drawn) [Example 312, 5-(1-benzylindol-2-yl)methyl-2,4-thiazolidinedione] was run?
Its activity at 50 µg/mL is 164%.

Which activity at 50 µg/mL does the source give for Cc1nc(Cn2ccc3c(CC4SC(=O)NC4=O)cccc32)cs1 (stereo not drawn) [Example 142, 5-{1-[(2-methylthiazol-4-yl)methyl]indol-4-yl}methyl-2,4-thiazolidinedione] here?
The activity at 50 µg/mL was 160%.
